Measured values taken from US7179825B2, “Retinoic acid mimetic anilides” (Janssen Pharmaceutica N.V., priority 1997, dated 2007).

How the values were obtained:
[1] = tested on: metabolism of retinoic acid in human breast cancer cells; experiment: Inhibition of retinoic acid (RA) metabolism (Example C.1); assay type: cell-based; conditions: MCF-7 human breast cancer cells, 3H-RA as substrate; concentration needed to reduce the amount of metabolites to 50% of the control
Summary of the method: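 Test compound (in 1% DMSO) added at several concentrations to MCF-7 cell suspensions fed ³H-RA, after RA induction of metabolism one day earlier. Scintillation counting of the separated polar metabolite fraction; IC50 = concentration giving 50% of control metabolite level.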

[2] = tested on: Ovariectomized rats; experiment: Vaginal keratinization test on ovariectomized rats (Example C.2); assay type: in vivo; conditions: estradiol undecylate induced keratinization, per os once daily on days 1-3, active dose = 50% of rats show complete suppression
Summary of the method: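 Value is the lowest oral dose (mg/kg) at which half of tested rats show complete suppression of estradiol undecylate-induced vaginal keratinization by histology. Ovariectomized rats received 100 μg/100 g estradiol undecylate s.c., then compound or PEG 200 vehicle p.o. daily for three days; sacrifice one day later.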

Q: CCCCOc1ccc(CC(=O)Nc2ccc(C(C(CC)CC)n3ccnc3)cc2)cc1 (racemic) [Compound 96] was tested. Which IC50 [1] did it give?
A: 1.09 nM

Q: And the “LAD (lowest active dose)” value [2]?
A: 2.50 mg/kg

Q: Which IC50 [1] does the source give for CCC(CC)C(c1ccc(NC(=O)Cc2ccc(O)c(OC)c2)cc1)n1ccnc1.O=C(O)C(=O)O (racemic) [Compound 97] here?
A: 1.32 nM

Q: What about the “LAD (lowest active dose)” value [2] of the same compound?
A: 2.50 mg/kg

Q: Which results are given for CCC(CC)C(c1ccc(NC(=O)Cc2cc(OC)ccc2OC)cc1)n1ccnc1 (racemic) [Compound 98]?
A: IC50 [1]: 1.64 nM; LAD (lowest active dose) [2]: 5.00 mg/kg

Q: With CCC(CC)C(c1ccc(NC(=O)Cc2ccc(N(C)C)cc2)cc1)n1ccnc1 (racemic) [Compound 99] as the compound, how does the IC50 [1] read?
A: 5.77 nM

Q: What about the “LAD (lowest active dose)” value [2] of the same compound?
A: 2.50 mg/kg

Q: Which IC50 [1] does the source give for CCC(CC)C(c1ccc(NC(=O)Cc2cccc(OC)c2OC)cc1)n1ccnc1 (racemic) [Compound 102] here?
A: 0.0678 nM

Q: What about the “LAD (lowest active dose)” value [2] of the same compound?
A: 5.00 mg/kg

Q: For CCC(CC)C(c1ccc(NC(=O)Cc2ccc(Oc3ccccc3)cc2)cc1)n1ccnc1 (racemic) [Compound 103], which IC50 [1] is on record?
A: 7.11 nM

Q: What about the “LAD (lowest active dose)” value [2] of the same compound?
A: >2.50 mg/kg

Q: For CCC(CC)C(c1ccc(NC(=O)Cc2ccccc2C)cc1)n1ccnc1 (racemic) [Compound 104], which IC50 [1] is on record?
A: 0.0407 nM

Q: And the “LAD (lowest active dose)” value [2]?
A: 2.50 mg/kg

Q: What does the source list for CCC(CC)C(c1ccc(NC(=O)Cc2ccc(OC)cc2)cc1)n1ccnc1 (racemic) [Compound 105]?
A: IC50 [1]: 0.0516 nM; LAD (lowest active dose) [2]: 2.50 mg/kg

Q: For CCC(CC)C(c1ccc(NC(=O)Cc2cc(C)ccc2C)cc1)n1ccnc1 (racemic) [Compound 106], which IC50 [1] is on record?
A: 1.69 nM

Q: And the “LAD (lowest active dose)” value [2]?
A: 2.50 mg/kg

Q: What does the source list for CCC(CC)C(c1ccc(NC(=O)Cc2ccccc2O)cc1)n1ccnc1 (racemic) [Compound 107]?
A: IC50 [1]: 1.44 nM; LAD (lowest active dose) [2]: >2.50 mg/kg

Q: CCC(CC)C(c1ccc(NC(=O)Cc2cccc(O)c2)cc1)n1ccnc1.O=C(O)C(=O)O (racemic) [Compound 109] was tested. Which IC50 [1] did it give?
A: 0.321 nM

Q: And the “LAD (lowest active dose)” value [2]?
A: 2.50 mg/kg

Q: Which results are given for CCC(CC)C(c1ccc(NC(=O)Cc2ccc(C)c(OC)c2)cc1)n1ccnc1 (racemic) [Compound 110]?
A: IC50 [1]: 0.953 nM; LAD (lowest active dose) [2]: >2.50 mg/kg

Q: Which results are given for CCC(CC)C(c1ccc(NC(=O)Cc2ccc(O)cc2)cc1)n1ccnc1 (racemic) [Compound 111]?
A: IC50 [1]: 1.03 nM; LAD (lowest active dose) [2]: >2.50 mg/kg

Q: Which results are given for CCC(CC)C(c1ccc(NC(=O)Cc2ccc(C)c(C)c2)cc1)n1ccnc1 (racemic) [Compound 112]?
A: IC50 [1]: 0.989 nM; LAD (lowest active dose) [2]: 2.50 mg/kg

Q: For CCC(CC)C(c1ccc(NC(=O)Cc2ccc(Cl)cc2OC)cc1)n1ccnc1 (racemic) [Compound 113], which IC50 [1] is on record?
A: 0.852 nM

Q: And the “LAD (lowest active dose)” value [2]?
A: >2.50 mg/kg

Q: How did the IC50 [1] turn out when CCC(CC)C(c1ccc(NC(=O)Cc2cccc(OC)c2OCc2ccccc2)cc1)n1ccnc1 (racemic) [Compound 115] was run?
A: 8.17 nM

Q: And the “LAD (lowest active dose)” value [2]?
A: >2.50 mg/kg

Q: Which results are given for CCC(CC)C(c1ccc(NC(=O)Cc2ccc(OC)c(Cl)c2)cc1)n1ccnc1 (racemic) [Compound 116]?
A: IC50 [1]: 0.678 nM; LAD (lowest active dose) [2]: 2.50 mg/kg

Q: CCC(CC)C(c1ccc(NC(=O)Cc2ccc(O)c(Cl)c2)cc1)n1ccnc1 (racemic) [Compound 117] was tested. Which IC50 [1] did it give?
A: 0.255 nM

Q: And the “LAD (lowest active dose)” value [2]?
A: >2.50 mg/kg

Q: What does the source list for CCOc1ccc(CC(=O)Nc2ccc(C(C(CC)CC)n3ccnc3)cc2)cc1Cl (racemic) [Compound 118]?
A: IC50 [1]: 2.24 nM; LAD (lowest active dose) [2]: 2.50 mg/kg

Q: Which results are given for CCC(CC)C(c1ccc(NC(=O)Cc2ccc(OCc3ccccn3)cc2)cc1)n1ccnc1 (racemic) [Compound 121]?
A: IC50 [1]: 0.914 nM; LAD (lowest active dose) [2]: >2.50 mg/kg

Q: Which results are given for CCC(CC)C(c1ccc(NC(=O)Cc2cc(C)ccc2OC)cc1)n1ccnc1 (racemic) [Compound 122]?
A: IC50 [1]: 2.4 nM; LAD (lowest active dose) [2]: >2.50 mg/kg

Q: How did the IC50 [1] turn out when CCC(CC)C(c1ccc(NC(=O)Cc2ccc(OC)c(C)c2)cc1)n1ccnc1 (racemic) [Compound 123] was run?
A: 0.0247 nM

Q: And the “LAD (lowest active dose)” value [2]?
A: 2.50 mg/kg

Q: CCOc1ccc(CC(=O)Nc2ccc(C(C(CC)CC)n3ccnc3)cc2)cc1C (racemic) [Compound 125] was tested. Which IC50 [1] did it give?
A: 0.194 nM

Q: What about the “LAD (lowest active dose)” value [2] of the same compound?
A: 2.50 mg/kg
